Target: T1, Human PPARγ2 (Homo sapiens, UniProt P37231)
T1 construct: The full length human cDNA for PPARγ2 and PPARδ were subcloned into the PGEX-2T and PGEX-KT; made in house; host or cells: E. coli (pGEX-2T vector)
T1 sequence (P37231 1-505): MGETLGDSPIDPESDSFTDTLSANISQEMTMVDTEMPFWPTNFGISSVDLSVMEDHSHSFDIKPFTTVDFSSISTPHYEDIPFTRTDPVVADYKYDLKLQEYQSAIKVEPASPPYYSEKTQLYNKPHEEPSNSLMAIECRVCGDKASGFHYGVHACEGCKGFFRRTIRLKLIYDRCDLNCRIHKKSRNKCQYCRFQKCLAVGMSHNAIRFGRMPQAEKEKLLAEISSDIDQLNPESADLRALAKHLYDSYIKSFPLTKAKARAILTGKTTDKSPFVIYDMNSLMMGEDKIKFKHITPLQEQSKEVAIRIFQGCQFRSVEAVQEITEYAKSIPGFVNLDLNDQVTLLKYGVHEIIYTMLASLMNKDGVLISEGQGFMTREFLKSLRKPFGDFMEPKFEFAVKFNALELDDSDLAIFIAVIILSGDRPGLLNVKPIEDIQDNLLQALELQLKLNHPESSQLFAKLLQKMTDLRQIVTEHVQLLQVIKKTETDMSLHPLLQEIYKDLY
Assay: [3H]AD-5075 displacement assay for PPARγ2
Format: binding
Settings: gst-fusion human PPARγ2, charcoal separation, ~16 h at 4° C.
From the text: Compounds of the instant invention which are useful for the above discussed treatments can be identified and/or characterized by employing the PPAR δ, and γ binding assays. The assays are useful in predicting or quantitating in vivo effects having to do with the control or modulation of glucose, free fatty acid, triglyceride, insulin or cholesterol. To evaluate IC50 or EC50, values the compounds were titrated in the appropriate assay using different concentrations of the compound to be tested. To obtain the appropriate values (%Inhibition-IC50, or %Activation-EC50), the data resulting from the assays were then analyzed by determining the best fit of a 4 parameter function to the data using the Levenberg-Marquardt non-linear fitting algorithm in Kaleidagraph (Synergy Software, Reading, Pa.). The human nuclear receptor cDNA for PPARδ (hPPARδ) has been cloned from a human osteosarcoma cell cDNA library and is fully described in A. Schmidt et al., Molecular Endocrinology, 6:1634-1641 (1992), herein incorporated by reference in its entirety. See A. Elbrecht et al., Biochem. and Biophy. Res. Comm. 224:431-437 (1996) and T. Sher et al., Biochem. 32:5598-5604 (1993) for a description of the human nuclear receptor gene PPARγ and α.
Human PPARγ2 and PPARδ, independently, were prepared as gst-fusion proteins in E. coli. […]

Kd: ~1 nM
Compound: Cc1oc(-c2ccccc2)nc1C(O)COc1ccc(CC2SC(=O)NC2=O)cc1 (stereo not shown) [AD-5075]

From patent US6515015B1, “Antidiabetic agents based on aryl and heteroarylacetic acids” (Merck & Co. Inc., priority 1996, dated 2003)
